Laboratory results as given in patent US12636284B2, “Compositions for use in the prevention and/or treatment of intellectual disability and neurodegenerative diseases in a subject with down syndrome” (UNIVERSITA' DEGLI STUDI DI ROMA “LA SAPIENZA”, priority 2021, dated 2026).

What was measured:
GSK3b protein = experiment: GSK3b activation (pSer9/pTyr216 ratio) in primary hippocampal neurons isolated from Ts2Cje mice; type: cell-based, mouse; conditions: 1, 5, 10 μM for 24 hours
Protocol: For Western blots, 20 μg of proteins from the hippocampus of mice belonging to the four experimental groups were separated by 4-15% SDS-PAGE CriterionTM […] (Bio-rad, Hercules, CAUSE). […] Therefore, the gel, once the image has been acquired, represents the total of the loaded proteins (Total Load), which will then be used to normalize the specific proteins to be examined. After electrophoresis and gel imaging, proteins are transferred via the semi-dry TransBlot Turbo apparatus (Bio-Rad Laboratories) onto nitrocellulose membranes (Bio-Rad, Hercules, CA, USA). Nitrocellulose membranes are blocked with 3% bovine serum albumin (BSA) in a solution of Tween 20-TBS and incubated overnight at 4° C. using specific primary antibodies: p([…])-GSK3B (1:1000, Santa Cruz, #sc-135653), p(S9)-GSK3β (1:1000, Cell Signaling, #5558S), GSK3β (1:1000 Abcam, #93926) and DYRK1A (1:1000, Cell Signaling, #8765S), MAPK44/42 (1:1000, Cell Signaling, #9102), p[…])-MAPK44/42 (1 1000, Cell Signaling, #9101), Akt (1:2000, Bio-Rad, # vma00253K), p(S473) Akt (1:1000, Cell Signaling, #4060S). After three washes with a T-TBS buffer solution, membranes were incubated for 1 hour at room temperature with the secondary antibodies. Secondary antibodies with peroxidase activity are anti-mouse or anti-rabbit (1:5000, Bio-rad, Hercules, CA, USA). […] Finally, the results obtained were analyzed using the ImageLab program (Bio-rad, Hercules, CA, USA). […] In order to isolate primary hippocampal neurons, hippocampi from Ts and euploid mice were mechanically dissociated in PBS (with Ca^2+ and […]) and centrifuged (3 minutes, 1100 rpm, 25° C.). Subsequently, the pellet was resuspended in 0.25% trypsin solution and centrifuged further for 3 minutes at 1100 rpm at Tamb. At this point, the cell extract was resuspended in MEM 1 culture medium (Minimum Essential Medium complemented with fetal bovine serum (FBS-1%), L-glutamine 200 mM (1%), glucose 25 mM (1%), gentamicin 0.1 mg/ml) and centrifuged for 10 minutes, 1100 rpm at 25° C. […]

DYRK1A protein = DYRK1A protein levels in primary hippocampal neurons isolated from Ts2Cje mice; type: cell-based, mouse; conditions: 1, 5, 10 μM for 24 hours, vs untreated Ts2Cje
Protocol: For Western blots, 20 μg of proteins from the hippocampus of mice belonging to the four experimental groups were separated by 4-15% SDS-PAGE Criterion™ TGX (Tris-Glyicine eXtended) Stain-Free™ (Bio-rad, Hercules, CAUSE). This type of gel allows a rapid acquisition of the protein run in the ultraviolet (UV) by Chemidoc™ MP imaging systems (Bio-rad, Hercules, CA, USA). Therefore, the gel, once the image has been acquired, represents the total of the loaded proteins (Total Load), which will then be used to normalize the specific proteins to be examined. After electrophoresis and gel imaging, proteins are transferred via the semi-dry TransBlot Turbo apparatus (Bio-Rad Laboratories) onto nitrocellulose membranes (Bio-Rad, Hercules, CA, USA). Nitrocellulose membranes are blocked with 3% bovine serum albumin (BSA) in a solution of Tween 20-TBS and incubated overnight at 4° C. using specific primary antibodies: p(T216)-GSK3B (1:1000, Santa Cruz, #sc-135653), p(S9)-GSK3β (1:1000, Cell Signaling, #5558S), GSK3β (1:1000 Abcam, #93926) and DYRK1A (1:1000, Cell Signaling, #8765S), MAPK44/42 (1:1000, Cell Signaling, #9102), p(Thr202/Tyr204)-MAPK44/42 (1 1000, Cell Signaling, #9101), Akt (1:2000, Bio-Rad, # vma00253K), p(S473) Akt (1:1000, Cell Signaling, #4060S). After three washes with a T-TBS buffer solution, membranes were incubated for 1 hour at room temperature with the secondary antibodies. Secondary antibodies with peroxidase activity are anti-mouse or anti-rabbit (1:5000, Bio-rad, Hercules, CA, USA). Membranes were developed using Clarity Enhanced Chemiluminescence (ECL), a chemiluminescent substrate (Bio-rad, Hercules, CA, USA) and acquired with Chemidoc Mp (Bio-rad, Hercules, CA, USA). Finally, the results obtained were analyzed using the ImageLab program (Bio-rad, Hercules, CA, USA).
In order to isolate primary hippocampal neurons, hippocampi from Ts and euploid mice were mechanically dissociated in PBS (with Ca^2+ and Mg^2−) and centrifuged (3 minutes, 1100 rpm, 25° C.). […]

Compound	activity of the GSK3B protein in Ts2Cje neurons (GSK3b protein)	levels of the DYRK1A protein in Ts2Cje neurons (DYRK1A protein)
Cn1c(=O)cc(N2CCC[C@@H](N)C2)n(Cc2ccccc2C#N)c1=O [alogliptin]	significant increase	significant reduction
N#C[C@@H]1CCCN1C(=O)CNC12CC3CC(CC(O)(C3)C1)C2 [vildagliptin]	significant increase	significant reduction
